Assay results taken from publication PMC3530924 (Bioorganic & medicinal chemistry, 2010).
Like-named read-outs stand apart in the source and are kept apart here.

Legend:
[1] = target: T1, CT-L activity of purified rabbit 20S proteasome (Oryctolagus cuniculus, UniProt G1SU71+G1T4Q9); assay: Fluorometric assay of CT-L proteolytic activity of purified 20S proteasome; type: biochemical
T1 sequence (G1T4Q9 60-263): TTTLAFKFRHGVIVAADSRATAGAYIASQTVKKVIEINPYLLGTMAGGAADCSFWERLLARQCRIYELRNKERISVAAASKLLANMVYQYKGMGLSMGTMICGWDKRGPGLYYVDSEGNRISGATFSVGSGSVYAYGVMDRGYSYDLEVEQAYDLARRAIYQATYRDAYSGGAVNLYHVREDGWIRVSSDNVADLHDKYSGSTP
T1 sequence (G1SU71 29-241): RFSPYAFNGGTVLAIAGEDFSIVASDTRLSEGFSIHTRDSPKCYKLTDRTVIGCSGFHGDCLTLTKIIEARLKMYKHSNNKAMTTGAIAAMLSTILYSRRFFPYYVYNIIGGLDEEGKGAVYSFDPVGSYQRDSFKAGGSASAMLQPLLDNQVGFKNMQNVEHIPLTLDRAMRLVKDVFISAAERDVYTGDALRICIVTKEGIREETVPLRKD

[2] = tested on: CT-L activity of rabbit 20S proteasome; assay: Dialysis; type: biochemical; details: compounds 10 µM; for inhibition of CT-L activity of the 20S proteasome in the absence of dialysis: 3 nM rabbit 20S proteasome, 30 min pre-incubation, no dialysis; for time of dialysis at which CT-L activity started to recover: dialysis at 4 °C against assay buffer
[3] = tested on: cancer cell lines derived from prostate, lung and multiple myeloma; details: cited from earlier work
[4] = tested on: primary cells derived from patients with multiple myeloma; details: cited from earlier work
[5] = tested on: MCF-7 cells; details: read-out: IC50 cell viability; cited from earlier work
[6] = tested on: human breast and lung tumors implanted as xenografts; details: nude mice; cited from earlier work
[7] = tested on: purified Calpain; assay: Inhibition of purified Calpain; type: biochemical; details: read-out: IC50 purified Calpain; data not reported in the paper
[8] = read-out: In vitro IC50 CT-L activity, purified rabbit 20S proteasome, Suc-Leu-Leu-Val-Tyr-AMC, 1 hour at 37 °C, pH 7.6, tested in triplicate at least twice

Row | IC50 [1] [µM] | Compound | other results
1 | > 100 | O=C1C(Cl)=C(N(Cc2ccc([N+](=O)[O-])cc2)c2ccc(S(=O)(=O)Nc3ccccn3)cc2)C(=O)c2ccccc21 [Compound 6d, 4-((3-Chloro-1,4-dioxo-1,4-dihydronaphthalen-2-yl)(4-nitrobenzyl)amino)-N-(pyridin-2-yl)benzenesulfonamide] | –
2 | > 100 | O=C1C(Cl)=C(N(Cc2ccc3ccccc3c2)c2ccc(S(=O)(=O)Nc3ccccn3)cc2)C(=O)c2ccccc21 [Compound 6e, 4-((3-Chloro-1,4-dioxo-1,4-dihydronaphthalen-2-yl)(naphthalen-2-ylmethyl)amino)-N-(pyridin-2-yl)benzenesulfonamide] | –
3 | > 100 | Cc1ccc(CN(C2=C(Cl)C(=O)c3ccccc3C2=O)c2ccc(S(=O)(=O)Nc3ccccn3)cc2)cc1 [Compound 6f, 4-((3-Chloro-1,4-dioxo-1,4-dihydronaphthalen-2-yl)(4-methylbenzyl)amino)-N-(pyridin-2-yl)benzenesulfonamide] | –
4 | > 100 | O=C1C(Cl)=C(N(Cc2ccc(C(F)(F)F)cc2)c2ccc(S(=O)(=O)Nc3ccccn3)cc2)C(=O)c2ccccc21 [Compound 6g, 4-((3-Chloro-1,4-dioxo-1,4-dihydronaphthalen-2-yl)(4-(trifluoromethyl)benzyl)amino)-N-(pyridin-2-yl)benzenesulfonamide] | –

Second part, the compound before the results:

Row | Compound | IC50 [1] [µM] | other results
5 | 4-(6-amino-3-chloro-1,4-dioxo-1,4-dihydronaphthalen-2-ylamino)-N- (pyridin-2-yl)benzenesulfonamide and 4-(7-amino-3-chloro-1,4-dioxo-1,4-dihydronaphthalen-2-ylamino)- N-(pyridin-2-yl)benzenesulfonamide [Compound 8] | – | inhibitory activity in the in vitro enzymatic assay ([1]; CT-L, mixtures of isomers): did not lead to any appreciable inhibitory activities
6 | O=C1C=CC(=O)c2ccccc21 [1,4-naphthoquinone] | > 100 | –
7 | O=C1C(Cl)=C(Cl)C(=O)c2ccccc21 [2,3-dichloronaphthoquinone] | – | IC50 [1, 8]: > 100 µM
8 | CC1=CC(=O)c2ccccc2C1=O [2-methyl-1,4-naphthoquinone] | > 100 | –
9 | CC(C)C[C@H](NC(=O)[C@H](Cc1ccccc1)NC(=O)c1cnccn1)B(O)O [Bortezomib, reference compound] | – | inhibition of CT-L activity of the 20S proteasome in the absence of dialysis [2]: 99%; time of dialysis at which CT-L activity started to recover [2]: 4 h
10 | COc1cnc(NS(=O)(=O)c2ccc(NC3=C(Cl)C(=O)c4ccccc4C3=O)cc2)nc1 [Compound 2e, 4-(3-Chloro-1,4-dioxo-1,4-dihydronaphthalen-2-ylamino)-N-(5-methoxypyrimidin-2-yl)benzenesulfonamide] | 100 | –
11 | COc1cc(NS(=O)(=O)c2ccc(NC3=C(Cl)C(=O)c4ccccc4C3=O)cc2)nc(OC)n1 [Compound 2i, 4-(3-Chloro-1,4-dioxo-1,4-dihydronaphthalen-2-ylamino)-N-(2,6-dimethoxypyrimidin-4-yl)-benzenesulfonamide] | 100 | –
12 | CC1=C(Nc2ccc(S(=O)(=O)Nc3ccccn3)cc2)C(=O)c2ccccc2C1=O [Compound 2k, 4-(3-Methyl-1,4-dioxo-1,4-dihydronaphthalen-2-ylamino)-N-(pyridin-2-yl)benzenesulfonamide] | > 100 | –
13 | CC1=C(Nc2ccc(S(=O)(=O)NC(=O)c3ccccc3)cc2)C(=O)c2ccccc2C1=O [Compound 2l, N-(4-(3-methyl-1,4-dioxo-1,4-dihydronaphthalen-2-ylamino)phenylsulfonyl) benzamide] | > 100 | –
14 | COc1cnc(NS(=O)(=O)c2ccc(NC3=C(C)C(=O)c4ccccc4C3=O)cc2)nc1 [Compound 2m, N-(5-methoxypyrimidin-2-yl)-4-(3-methyl-1,4-dioxo-1,4-dihydronaphthalen-2-ylamino)-benzenesulfonamide] | > 100 | –
15 | O=C(NS(=O)(=O)c1ccc(NC2=CC(=O)c3ccccc3C2=O)cc1)c1ccccc1 [Compound 2p, N-(4-(1,4-dioxo-1,4-dihydronaphthalen-2-ylamino)phenylsulfonyl)benzamide] | > 100 | –
16 | Cc1cc(NS(=O)(=O)c2ccc(NC3=CC(=O)c4ccccc4C3=O)cc2)no1 [Compound 2q, 4-(1,4-Dioxo-1,4-dihydronaphthalen-2-ylamino)-N-(5-methylisoxazol-3-yl)benzenesulfonamide] | > 100 | –
17 | O=C1C=C(Nc2ccc(S(=O)(=O)Nc3ccccn3)cc2)C(=O)c2ccccc21 [Compound 2r, 4-(1,4-Dioxo-1,4-dihydronaphthalen-2-ylamino)-N-(pyridin-2-yl)benzenesulfonamide] | > 100 | –
18 | NS(=O)(=O)c1ccc(NC2=C(Cl)C(=O)c3ccccc3C2=O)cc1 [Compound 2t, 4-(3-Chloro-1,4-dioxo-1,4-dihydronaphthalen-2-ylamino)benzenesulfonamide] | > 100 | –
19 | O=C1C(Cl)=C(Nc2ccc(S(=O)(=O)Nc3ccc(Cl)cc3)cc2)C(=O)c2ccccc21 [Compound 2u, 4-(3-Chloro-1,4-dioxo-1,4-dihydronaphthalen-2-ylamino)-N-(4-chlorophenyl)benzenesulfonamide] | > 100 | –
20 | O=C1C(Cl)=C(Nc2ccc(S(=O)(=O)Nc3ccc(F)cc3F)cc2)C(=O)c2ccccc21 [Compound 2v, 4-(3-Chloro-1,4-dioxo-1,4-dihydronaphthalen-2-ylamino)-N-(2,4-difluorophenyl)benzenesulfonamide] | > 100 | –
21 | O=C1C(Cl)=C(Nc2ccc(S(=O)(=O)Nc3ccc(Cl)cc3Cl)cc2)C(=O)c2ccccc21 [Compound 2w, 4-(3-Chloro-1,4-dioxo-1,4-dihydronaphthalen-2-ylamino)-N-(2,4-dichlorophenyl)benzenesulfonamide] | > 100 | –
22 | CN(C1=C(Cl)C(=O)c2ccccc2C1=O)c1ccc(S(=O)(=O)Nc2ccccn2)cc1 [Compound 6a, 4-((3-Chloro-1,4-dioxo-1,4-dihydronaphthalen-2-yl)(methyl)amino)-N-(pyridin-2-yl) benzenesulfonamide] | – | IC50 [1, 8]: > 100 µM
23 | CCN(C1=C(Cl)C(=O)c2ccccc2C1=O)c1ccc(S(=O)(=O)Nc2ccccn2)cc1 [Compound 6b, 4-((3-Chloro-1,4-dioxo-1,4-dihydronaphthalen-2-yl)(ethyl)amino)-N-(pyridin-2-yl) benzenesulfonamide] | – | IC50 [1, 8]: > 100 µM
24 | O=C1C(Cl)=C(N(Cc2ccccc2)c2ccc(S(=O)(=O)Nc3ccccn3)cc2)C(=O)c2ccccc21 [Compound 6c, 4-(Benzyl(3-chloro-1,4-dioxo-1,4-dihydronaphthalen-2-yl)amino)-N-(pyridin-2-yl) benzenesulfonamide] | – | IC50 [1, 8]: > 100 µM
25 | O=C1C(Cl)=C(Nc2ccc(S(=O)(=O)Nc3ccccn3)cc2)C(=O)c2ccccc21 [PI-083, 4-(3-Chloro-1,4-dioxo-1,4-dihydronaphthalen-2-ylamino)-N-(pyridin-2-yl)benzenesulfonamide] | – | apoptosis in cancer cell lines [3]: induces apoptosis; proliferation and survival of primary cells [4]: efficient in inhibiting proliferation and survival; IC50 [5]: 2.31 ± 0.1 µM; growth of human breast and lung tumor xenografts [6]: suppresses the growth; inhibition of CT-L activity of the 20S proteasome in the absence of dialysis [2]: 88%; time of dialysis at which CT-L activity started to recover [2]: 1 h; IC50 [7]: > 30 µM
26 | Nc1ccc(S(=O)(=O)Nc2ccccn2)cc1 [sulfapyridine] | > 100 | –
